Data: ChEMBL document CHEMBL3792360, “Antibacterial activity of Mannich bases derived from 2-naphthols, aromatic aldehydes and secondary aliphatic amines” (2016)
In brackets after ≈: the same amount, converted by molar mass.

How the values were obtained:
Format in all cases: functional
Pseudomonas aeruginosa = experiment: Antibacterial activity against Pseudomonas aeruginosa CIP 82118 after 16 to 20 hrs by broth microdilution method
Klebsiella pneumoniae = experiment: Antibacterial activity against Klebsiella pneumoniae CIP 53153 after 16 to 20 hrs by broth microdilution method
Proteus vulgaris = experiment: Antibacterial activity against Proteus vulgaris CIP 104989 after 16 to 20 hrs by broth microdilution method
Escherichia coli [1] = experiment: Antibacterial activity against Escherichia coli ATCC 25922 after 16 to 20 hrs by broth microdilution method
Staphylococcus aureus [2] = experiment: Antibacterial activity against methicillin-resistant Staphylococcus aureus ATCC 43300 after 16 to 20 hrs by broth microdilution method
Enterobacter cloacae = experiment: Antibacterial activity against Enterobacter cloacae CIP 103475 after 16 to 20 hrs by broth microdilution method
Citrobacter freundii = experiment: Antibacterial activity against Citrobacter freundii CIP 5732 after 16 to 20 hrs by broth microdilution method
Staphylococcus aureus [3] = experiment: Antibacterial activity against Staphylococcus aureus […] after 16 to 20 hrs by broth microdilution method
Enterococcus faecalis = experiment: Antibacterial activity against Enterococcus faecalis ATCC 25912 after 16 to 20 hrs by broth microdilution method
Escherichia coli [4] = experiment: Antibacterial activity against Escherichia coli ATCC 35218 after 16 to 20 hrs by broth microdilution method

`Oc1ccc2ccccc2c1C(c1cccs1)n1nnc2ccccc21` (stereo not given) showed an MIC (Pseudomonas aeruginosa) greater than 512 µg/mL, an MIC (Klebsiella pneumoniae) greater than 512 µg/mL and an MIC (Proteus vulgaris) greater than 512 µg/mL. For the same compound, the MIC (Escherichia coli [1]) was greater than 512 µg/mL, the MIC (Staphylococcus aureus [2]) was 16 µg/mL (≈ 44.8 µM) and the MIC (Enterobacter cloacae) was greater than 512 µg/mL. For the same compound, the MIC (Citrobacter freundii) was greater than 512 µg/mL, the MIC (Staphylococcus aureus [3]) was 16 µg/mL (≈ 44.8 µM) and the MIC (Enterococcus faecalis) was greater than 512 µg/mL. The MIC (Escherichia coli [4]) was greater than 512 µg/mL.

`CC1(C)S[C@@H]2[C@H](NC(=O)[C@H](N)c3ccc(O)cc3)C(=O)N2[C@H]1C(=O)O` [AMOXICILLIN] was tested, and the MIC (Pseudomonas aeruginosa) was greater than 512 µg/mL, the MIC (Klebsiella pneumoniae) was 256 µg/mL (≈ 701 µM) and the MIC (Proteus vulgaris) was 256 µg/mL (≈ 701 µM). The MIC (Escherichia coli [1]) was 2 µg/mL (≈ 5.47 µM), the MIC (Staphylococcus aureus [2]) was 8 µg/mL (≈ 21.9 µM) and the MIC (Enterobacter cloacae) was 256 µg/mL (≈ 701 µM). It also gave an MIC (Citrobacter freundii) of 125 µg/mL (≈ 342 µM), an MIC (Staphylococcus aureus [3]) of 0.06 µg/mL (≈ 0.164 µM) and an MIC (Enterococcus faecalis) of 0.25 µg/mL (≈ 0.684 µM). It also gave an MIC (Escherichia coli [4]) of 2 µg/mL (≈ 5.47 µM).
